The source made the active and inactive calls. The calls are words filed in the database; no cut-off is given here.
Columns and labels:
[1] = system: UO-31; assay: Antiproliferative activity against human UO31 cells assessed as growth inhibition after 48 hrs by sulforhodamine B assay; format: functional; conditions: UO-31, 48 h
[2] = system: Panel NCI-60 (60 carcinoma cell lines); assay: Antiproliferative activity against human NCI60 cells assessed as growth inhibition after 48 hrs by sulforhodamine B assay; format: functional
[3] = Selectivity index, ratio of IC50 for human WI38 cells to GI50 for human NCI60 cells
[4] = system: PC-3; assay: Antiproliferative activity against human PC3 cells assessed as growth inhibition after 48 hrs by sulforhodamine B assay; format: functional; conditions: PC-3, 48 h
[5] = system: OVCAR-3; assay: Antiproliferative activity against human OVCAR3 cells assessed as growth inhibition after 48 hrs by sulforhodamine B assay; format: functional; conditions: OVCAR-3, 48 h
[6] = system: DU-145; assay: Antiproliferative activity against human DU145 cells assessed as growth inhibition after 48 hrs by sulforhodamine B assay; format: functional; conditions: DU-145, 48 h
[7] = system: SN12C; assay: Antiproliferative activity against human SN12C cells assessed as growth inhibition after 48 hrs by sulforhodamine B assay; format: functional
[8] = system: RXF 393; assay: Antiproliferative activity against human RXF393 cells assessed as growth inhibition after 48 hrs by sulforhodamine B assay; format: functional; conditions: RXF 393, 48 h
[9] = system: CAKI-1; assay: Antiproliferative activity against human CAKI-1 cells assessed as growth inhibition after 48 hrs by sulforhodamine B assay; format: functional; conditions: CAKI-1, 48 h
[10] = system: ACHN; assay: Antiproliferative activity against human ACHN cells assessed as growth inhibition after 48 hrs by sulforhodamine B assay; format: functional
[11] = system: A498; assay: Antiproliferative activity against human A498 cells assessed as growth inhibition after 48 hrs by sulforhodamine B assay; format: functional; conditions: A498, 48 h
[12] = system: SK-OV-3; assay: Antiproliferative activity against human SKOV3 cells assessed as growth inhibition after 48 hrs by sulforhodamine B assay; format: functional; conditions: SK-OV-3, 48 h
[13] = system: OVCAR-8; assay: Antiproliferative activity against human OVCAR8 cells assessed as growth inhibition after 48 hrs by sulforhodamine B assay; format: functional; conditions: OVCAR-8, 48 h
[14] = system: OVCAR-5; assay: Antiproliferative activity against human OVCAR5 cells assessed as growth inhibition after 48 hrs by sulforhodamine B assay; format: functional; conditions: OVCAR-5, 48 h
[15] = system: UACC-62; assay: Antiproliferative activity against human UACC62 cells assessed as growth inhibition after 48 hrs by sulforhodamine B assay; format: functional; conditions: UACC-62, 48 h
[16] = system: M14; assay: Antiproliferative activity against human M14 cells assessed as growth inhibition after 48 hrs by sulforhodamine B assay; format: functional; conditions: M14, 48 h
[17] = system: LOX IMVI; assay: Antiproliferative activity against human LOXIMVI cells assessed as growth inhibition after 48 hrs by sulforhodamine B assay; format: functional
[18] = system: SF-295; assay: Antiproliferative activity against human SF295 cells assessed as growth inhibition after 48 hrs by sulforhodamine B assay; format: functional; conditions: SF-295, 48 h
[19] = system: SF-268; assay: Antiproliferative activity against human SF268 cells assessed as growth inhibition after 48 hrs by sulforhodamine B assay; format: functional; conditions: SF-268, 48 h
[20] = system: KM12; assay: Antiproliferative activity against human KM12 cells assessed as growth inhibition after 48 hrs by sulforhodamine B assay; format: functional; conditions: KM12, 48 h
[21] = system: HT-29; assay: Antiproliferative activity against human HT-29 cells assessed as growth inhibition after 48 hrs by sulforhodamine B assay; format: functional; conditions: HT-29, 48 h
[22] = system: HCT-15; assay: Antiproliferative activity against human HCT15 cells assessed as growth inhibition after 48 hrs by sulforhodamine B assay; format: functional; conditions: HCT-15, 48 h
[23] = system: NCI-H460; assay: Antiproliferative activity against human NCI-H460 cells assessed as growth inhibition after 48 hrs by sulforhodamine B assay; format: functional; conditions: NCI-H460, 48 h
[24] = system: NCI-H23; assay: Antiproliferative activity against human NCI-H23 cells assessed as growth inhibition after 48 hrs by sulforhodamine B assay; format: functional; conditions: NCI-H23, 48 h
[25] = system: HOP-62; assay: Antiproliferative activity against human HOP62 cells assessed as growth inhibition after 48 hrs by sulforhodamine B assay; format: functional; conditions: HOP-62, 48 h
[26] = system: EKVX; assay: Antiproliferative activity against human EKVX cells assessed as growth inhibition after 48 hrs by sulforhodamine B assay; format: functional
[27] = system: SR; assay: Antiproliferative activity against human SR cells assessed as growth inhibition after 48 hrs by sulforhodamine B assay; format: functional
[28] = system: HL-60(TB); assay: Antiproliferative activity against human HL-60(TB) cells assessed as growth inhibition after 48 hrs by sulforhodamine B assay; format: functional; conditions: HL-60, 48 h
[29] = system: T47D; assay: Antiproliferative activity against human T47D cells assessed as growth inhibition after 48 hrs by sulforhodamine B assay; format: functional
[30] = (§1) Haemolytic activity in human erythrocytes assessed as induction of hemolysis at 2.5 mM after 30 mins relative to H202; format: cell-based, Erythrocyte; conditions: erythrocytes, read-out: Activity
[31] = Antioxidant activity assessed as DPPH radical scavenging activity incubated in dark for 30 mins by spectrophotometric method relative to ascorbic acid; format: functional
[32] = Antioxidant activity assessed as ABTS radical scavenging activity by spectrophotometric analysis relative to control; format: functional; design: concentration or dose not given beside the values; conditions: dose or concentration not given here
[33] = Antioxidant activity assessed as hydroxyl radical scavenging activity after 1 hr by salicylic acid-based Fenton reaction assay; format: functional
[34] = system: HCT-116; assay: Induction of apoptosis in human HCT116 cells assessed as increase in caspase 3 mRNA expression at 100 nM after 6 hrs hrs by SYBR green dye-based qRT-PCR analysis relative to control; format: functional
[35] = system: HCT-116; assay: Induction of apoptosis in human HCT116 cells assessed as increase in caspase 9 mRNA expression at 100 nM after 6 hrs hrs by SYBR green dye-based qRT-PCR analysis relative to control; format: functional
[36] = system: HCT-116; assay: Induction of apoptosis in human HCT116 cells assessed as increase in p53 mRNA expression at 100 nM after 6 hrs hrs by SYBR green dye-based qRT-PCR analysis relative to control; format: functional
[37] = system: HCT-116; assay: Reduction in CDK1 mRNA expression in human HCT116 cells at 100 nM after 6 hrs hrs by SYBR green dye-based qRT-PCR analysis relative to control; format: functional; conditions: HCT-116, 6 h
[38] = system: HOP-92; assay: Antiproliferative activity against human HOP92 cells assessed as growth inhibition after 48 hrs by sulforhodamine B assay; format: functional; conditions: HOP-92, 48 h
[39] = system: Erythrocyte; assay: as §1; format: cell-based; conditions: erythrocyte, 0.5 h, 2500 µM

SMILES | GI50 [1] [nM] | GI50 [2] [nM] | LC50 [2] [nM] | TGI [2] [nM] | Selectivity Index [3] | GI50 [4] [nM] | GI50 [5] [nM] | GI50 [6] [nM] | GI50 [7] [nM] | GI50 [8] [nM] | GI50 [9] [nM] | GI50 [10] [nM] | GI50 [11] [nM] | GI50 [12] [nM] | GI50 [13] [nM] | GI50 [14] [nM] | GI50 [15] [nM] | GI50 [16] [nM] | GI50 [17] [nM] | GI50 [18] [nM] | further results
N=C(N)c1ccc(-c2ccc(-c3cc(Cl)cc(Cl)c3)o2)o1 | 1710 | 1740 | 10700 | 3470 | 9.2 | 1800 | 1700 | 1780 | 1970 | 1790 | 1700 | 1710 | 1610 | 1800 | 2230 | 1810 | 1940 | 1860 | 1680 | 1770 | GI50 [19]: 1770 nM; GI50 [20]: 1650 nM; GI50 [21]: 1500 nM; GI50 [22]: 1640 nM; GI50 [23]: 1900 nM; GI50 [24]: 1670 nM; GI50 [25]: 1890 nM; GI50 [26]: 1640 nM; GI50 [27]: 630 nM; GI50 [28]: 1620 nM; GI50 [29]: 1720 nM; hemolysis at 0.5 h, 2500 µM [30]: 11.1%; fold change (FC) [31]: 0.2; inhibition [32]: 19%; Activity [33]: Active; fold change (FC) [34]: 2.81; fold change (FC) [35]: 2.97; fold change (FC) [36]: 1.99; inhibition at 0.1 µM [37]: 46%
N=C(N)c1ccc(-c2ccc(-c3cncc4ccccc34)s2)s1 | 1390 | 1340 | 77600 | 3230 | >74.6 | 1560 | 1650 | 1550 | 1800 | 1600 | 1600 | 1480 | 1690 | 1580 | 1830 | 1710 | 2310 | 1620 | 1110 | 1800 | GI50 [19]: 1630 nM; GI50 [20]: 1510 nM; GI50 [21]: 560 nM; GI50 [22]: 980 nM; GI50 [23]: 880 nM; GI50 [24]: 1760 nM; GI50 [38]: 1370 nM; GI50 [25]: 1700 nM; GI50 [26]: 1330 nM; GI50 [27]: 270 nM; GI50 [28]: 1920 nM; GI50 [29]: 1520 nM; Activity [39]: Non-Toxic; fold change (FC) [31]: 0.6; inhibition [32]: 69.9%; Activity [33]: Active; fold change (FC) [34]: 3.03; fold change (FC) [35]: 1.27; fold change (FC) [36]: 4.67; inhibition at 0.1 µM [37]: 84%
COc1ccc2cc(-c3ccc(-c4ccc(C(=N)N)s4)s3)ccc2c1 | 2880 | 3090 | 38000 | 7940 | 26 | 2130 | 2420 | 1700 | 2120 | 7220 | 8290 | 3060 | 14300 | 17900 | 2340 | 2110 | 2010 | 4000 | 1950 | 5070 | GI50 [19]: 2100 nM; GI50 [20]: 2060 nM; GI50 [21]: 1720 nM; GI50 [22]: 1890 nM; GI50 [23]: 1940 nM; GI50 [24]: 3220 nM; GI50 [25]: 1780 nM; GI50 [26]: 2140 nM; GI50 [27]: 850 nM; GI50 [28]: 1840 nM; GI50 [29]: 1790 nM; Activity [39]: Non-Toxic; fold change (FC) [31]: 0.5; inhibition [32]: 57.4%; Activity [33]: Active; fold change (FC) [34]: 2.44; fold change (FC) [35]: 2.51; fold change (FC) [36]: 1.03

— ChEMBL document CHEMBL4346657, “Anticancer activity, dual prooxidant/antioxidant effect and apoptosis induction profile of new bichalcophene-5-carboxamidines” (Eur J Med Chem, 2019)
